The text below walks through data of patent publication US8084459B2, “Substituted quinazolinones for treating neurological conditions” (Prana Biotechnology Ltd, priority 2004, dated 2011).

In this test the test system is Aβ1-42 toxicity in neuronal cortical cells. Put plainly: Assay 3(c) Aβ neurotoxicity and neuroprotection (MTS). Particulars: 20 uM Aβ1-42, cortical neurons, 4 days. It is filed as cell-based, mouse. The protocol: Primary Cortical Neuronal Cultures
Cortical cultures were prepared as previously described (White et al., 1998). Embryonic day 14 BL6Jx129sv mouse cortices were removed, dissected free of meninges and dissociated in 0.025% (wt/vol) trypsin. Dissociated cells were plated in 48 well culture plates at a density of 2×10^6 cells/mL in MEM with 25% (vol/vol) FCS and 5% (vol/vol) HS and incubated at 37° C., 2 hrs. Media was then replaced with Neurobasal media (Invitrogen Life Technologies) and B27 supplements (Invitrogen Life Technologies). Cultures were maintained at 37° C. in 5% CO2. Prior to experimentation, the culture medium was replaced with Neurobasal media and B27 minus antioxidants (Invitrogen Life Technologies).
(c) Assay for Aβ Neurotoxicity and Aβ Neuroprotection
Neuronal cortical cells were cultured for five days as per Assay 2. On day six the neurobasal (NB) media (Invitrogen Life Technologies) and B27 supplement (Invitrogen Life Technologies) were replaced with NB media and B27 supplement (no antioxidants). On day six, test compounds were individually added to the neuronal cell cultures:
The test compounds were dissolved in 100% DMSO to a concentration of 2.5 mM (10 mM if excess compound was weighed out per vial—then diluted to 2.5 mM). 2.5 mM stock solution was serially diluted 1 in 10 to give working solutions of 250 uM, 25 uM, 2.5 uM.
Aβ was initially dissolved in 20 mM NaOH to a concentration of 1 mM and sonicated for 5 minutes. The peptide was then diluted in H2O and 10×PBS to a final concentration of 200 uM Aβ in 1× PBS. The peptide was again sonicated for 5 minutes and then spun at 14000 rpm for 5 min and transferred to a fresh tube.
The test compounds were dissolved in 100% DMSO to a concentration of 2.5 mM (10 mM if excess compound was weighed out per vial—then diluted to 2.5 mM). 2.5 mM stock solution was serially diluted 1 in 10 [in NB media and B27 (no antioxidants)] to give working solutions of 250 uM, 25 uM, 2.5 uM. Test compounds were not added directly to cells, instead they were added to a 48 well ‘Drug Plate’ as comprised below:
Preparation of “Drug Plate”:
Well 1: 515 ul NB+B27 (no antioxidant)*+24 ul 25 uM test compound+60 ul Aβ diluent**
Well 2: 515 ul NB+B27 (no antioxidant)+24 ul 250 uM test compound+60 ul Aβ diluent
Well 3: 515 ul NB+B27 (no antioxidant)+24 ul test compound diluent***+60 ul Aβ1-42
Well 4: 515 ul NB+B27 (no antioxidant)+24 ul 2.5 uM test compound+60 ul Aβ1-42
Well 5: 515 ul NB+B27 (no antioxidant)+24 ul 25 uM test compound+60 ul Aβ1-42
Well 6: 515 ul NB+B27 (no antioxidant)+24 ul 250 uM test compound+60 ul Aβ1-42 diluent
Well 7: 515 ul NB+B27 (no antioxidant)+24 ul test compound diluent+60 ul Aβ1-42 diluent
Well 8: 600 ul NB+B27 (no antioxidant)
The Drug Plate was incubated at 37° C. for 15 mins. 200 ul of each well was added in triplicate to the corresponding cell plate. The cell plate was incubated at 37 C, for 4 days.
* NB media+B27 (no antioxidants)
** Aβ diluent 2 mM NaOH, 1×PBS
*** PBT diluent 10% DMSO in NB+B27 (no antioxidant)
On the 4th day after treating the cells the assay is completed by adding MTS to the cells.

Regarding `Cc1nc(Cn2cnc3c(O)c(Cl)cc(Cl)c3c2=O)cs1` [Compound 1084], the “Assay 3(c) Neuroprotection (% inhibition of Abeta toxicity)” value came out at 2%.
For `Cc1noc(C)c1Cn1cnc2c(O)c(Cl)cc(Cl)c2c1=O` [Compound 1085], the “Assay 3(c) Neuroprotection (% inhibition of Abeta toxicity)” value is listed as 7%.
